Data: ChEMBL document CHEMBL1145783, “Development of an orexin-2 receptor selective agonist, [Ala(11), D-Leu(15)]orexin-B” (Bioorg Med Chem Lett, 2003)

Molecular target: T1, Orexin receptor type 2 (Homo sapiens, UniProt O43614)
T1 sequence (O43614 whole entry): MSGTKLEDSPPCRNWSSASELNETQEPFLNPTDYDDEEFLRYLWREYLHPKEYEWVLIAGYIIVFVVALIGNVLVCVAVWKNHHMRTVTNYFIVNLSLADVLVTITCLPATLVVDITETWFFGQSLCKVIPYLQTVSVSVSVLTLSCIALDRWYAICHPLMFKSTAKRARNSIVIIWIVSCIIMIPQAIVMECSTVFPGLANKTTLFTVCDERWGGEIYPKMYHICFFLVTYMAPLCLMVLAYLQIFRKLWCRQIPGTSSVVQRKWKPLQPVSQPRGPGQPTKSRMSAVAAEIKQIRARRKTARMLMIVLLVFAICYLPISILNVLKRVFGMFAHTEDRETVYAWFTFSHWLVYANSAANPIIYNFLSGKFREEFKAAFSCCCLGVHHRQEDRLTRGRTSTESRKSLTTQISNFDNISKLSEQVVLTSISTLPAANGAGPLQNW
Assay: Agonist activity against human orexin 2 receptor; EC50; nM
Assay type: functional

Row | Compound | EC50 [nM]
1 | CC[C@H](C)[C@H](NC(=O)[C@H](CC(C)C)NC(=O)[C@@H](NC(=O)[C@@H](N)CCSC)[C@@H](C)O)C(=O)NCC(=O)N[C@@H](C)C(=O)N[C@@H](C)C(=O)N[C@@H](Cc1c[nH]cn1)C(=O)N[C@@H](CC(N)=O)C(=O)NCC(=O)N[C@@H](CO)C(=O)N[C@@H](C)C(=O)N[C@@H](CCC(N)=O)C(=O)N[C@@H](CC(C)C)C(=O)N[C@@H](CC(C)C)C(=O)N[C@@H](CCCN=C(N)N)C(=O)N[C@@H](CCC(N)=O)C(=O)N[C@@H](CC(C)C)C(=O)N[C@@H](CCCN=C(N)N)C(=O)NCC(=O)N[C@@H](CCC(N)=O)C(=O)N[C@H](CC(C)C)C(=O)NCC(=O)N1CCC[C@H]1C(=O)N1CCC[C@H]1C(=O)NCC(=O)N[C@@H](CO)C(=O)N[C@@H](CCCN=C(N)N)C(N)=O | 0.084
2 | CC[C@H](C)[C@H](NC(=O)[C@H](CC(C)C)NC(=O)[C@@H](NC(=O)[C@@H](N)CCSC)[C@@H](C)O)C(=O)NCC(=O)N[C@@H](C)C(=O)N[C@@H](C)C(=O)N[C@@H](Cc1c[nH]cn1)C(=O)N[C@@H](CC(N)=O)C(=O)NCC(=O)N[C@@H](CO)C(=O)N[C@@H](C)C(=O)N[C@@H](CCC(N)=O)C(=O)N[C@@H](CC(C)C)C(=O)N[C@@H](CC(C)C)C(=O)N[C@@H](CCCN=C(N)N)C(=O)N[C@@H](CCC(N)=O)C(=O)N[C@@H](CC(C)C)C(=O)N[C@@H](CCCN=C(N)N)C(=O)NCC(=O)N[C@@H](CCC(N)=O)C(=O)N[C@@H](CC(C)C)C(=O)NCC(=O)N1CCC[C@H]1C(=O)N1CCC[C@@H]1C(=O)NCC(=O)N[C@@H](CO)C(=O)N[C@@H](CCCN=C(N)N)C(N)=O | 0.15
3 | H-ATLIGAAHNGSAQLLRQLRGQLGPPGSR-NH2 | 15
4 | CSCC[C@H](N)C(=O)N[C@H](C(=O)N[C@@H](CC(C)C)C(=O)N[C@H](C)C(=O)NCC(=O)N[C@@H](C)C(=O)N[C@@H](C)C(=O)N[C@@H](Cc1c[nH]cn1)C(=O)N[C@@H](CC(N)=O)C(=O)NCC(=O)N[C@@H](CO)C(=O)N[C@@H](C)C(=O)N[C@@H](CCC(N)=O)C(=O)N[C@@H](CC(C)C)C(=O)N[C@@H](CC(C)C)C(=O)N[C@@H](CCCN=C(N)N)C(=O)N[C@@H](CCC(N)=O)C(=O)N[C@@H](CC(C)C)C(=O)N[C@@H](CCCN=C(N)N)C(=O)NCC(=O)N[C@@H](CCC(N)=O)C(=O)N[C@@H](CC(C)C)C(=O)NCC(=O)N1CCC[C@H]1C(=O)N1CCC[C@H]1C(=O)NCC(=O)N[C@@H](CO)C(=O)N[C@@H](CCCN=C(N)N)C(N)=O)[C@@H](C)O | > 390
5 | CC[C@H](C)[C@@H](NC(=O)[C@H](CC(C)C)NC(=O)[C@@H](NC(=O)[C@@H](N)CCSC)[C@@H](C)O)C(=O)NCC(=O)N[C@@H](C)C(=O)N[C@@H](C)C(=O)N[C@@H](Cc1c[nH]cn1)C(=O)N[C@@H](CC(N)=O)C(=O)NCC(=O)N[C@@H](CO)C(=O)N[C@@H](C)C(=O)N[C@@H](CCC(N)=O)C(=O)N[C@@H](CC(C)C)C(=O)N[C@@H](CC(C)C)C(=O)N[C@@H](CCCN=C(N)N)C(=O)N[C@@H](CCC(N)=O)C(=O)N[C@@H](CC(C)C)C(=O)N[C@@H](CCCN=C(N)N)C(=O)NCC(=O)N[C@@H](CCC(N)=O)C(=O)N[C@@H](CC(C)C)C(=O)NCC(=O)N1CCC[C@H]1C(=O)N1CCC[C@H]1C(=O)NCC(=O)N[C@@H](CO)C(=O)N[C@@H](CCCN=C(N)N)C(N)=O | > 1400
6 | CC[C@H](C)[C@H](NC(=O)[C@H](CC(C)C)NC(=O)[C@@H](NC(=O)[C@@H](N)CCSC)[C@@H](C)O)C(=O)NCC(=O)N[C@@H](C)C(=O)N[C@@H](C)C(=O)N[C@@H](Cc1cnc[nH]1)C(=O)N[C@@H](CC(N)=O)C(=O)NCC(=O)N[C@@H](CO)C(=O)N[C@@H](C)C(=O)N[C@@H](CCC(N)=O)C(=O)N[C@@H](CC(C)C)C(=O)N[C@@H](CC(C)C)C(=O)N[C@H](CCCN=C(N)N)C(=O)N[C@@H](CCC(N)=O)C(=O)N[C@@H](CC(C)C)C(=O)N[C@@H](CCCN=C(N)N)C(=O)NCC(=O)N[C@@H](CCC(N)=O)C(=O)N[C@@H](CC(C)C)C(=O)NCC(=O)N1CCC[C@H]1C(=O)N1CCC[C@H]1C(=O)NCC(=O)N[C@@H](CO)C(=O)N[C@@H](CCCN=C(N)N)C(N)=O | 0.41
